# According to patent publication US20100197587A1, “USE OF A PEPTIDE AS A THERAPEUTIC AGENT” (priority 2007, published 2010):
# No end group written: not given here.
# Assays:
# [1] = test system: HIV-1IIIB; test: HIV-1 antiviral assay in CEM-SS cells (MTS readout); details: positive controls
# [2] = test system: HCMV strain AD169; test: HCMV plaque formation assay in MRC-5 cells; details: for inhibition of HCMV plaque formation as compared to the virus control experiment: 10 micrograms per ml, 7-10 days
# [3] = test system: RAW 264.7 (Mouse leukaemic monocyte macrophage cell line) cells; test: Phagocytosis assay (Fluorescein-labeled Escherichia coli, flow cytometry); format: cell-based; details: 10 micrograms per ml; RAW 264.7, Fluorescein-labeled E. coli
# [4] = test system: hepatitis B virus (HBV) ayw strain; test: HBV assay in HepG2-2.2.15 cells (secreted HBV DNA by TaqMan PCR); format: cell-based; details: 10 micrograms per ml; HepG2-2.2.15, six days, HBV DNA in supernatant
# [5] = test system: spleen cells; test: Th1/Th2 cytokine profiling assay (Ovalbumin-restimulated spleen cells); details: 10 micrograms per ml; Ovalbumin restimulation, 72 hours, supernatant
# Source text: The Balb/c mice (originated in 1923, it is a popular strain and is used in many different research disciplines. Also classified as an inbred from the production of 20 or more successive brother-sister matings, the Balb/c mouse is albino and small in size) were immunized on Days 1, 15, and 29 with Ovalbumin (Ovalbumin is the main protein found in egg white, commonly used to stimulate an immunological reaction in test animals) in PBS (5 micrograms/injection). On day 50, spleens of the mice were harvested (3 weeks after last boost with Ovalbumin). […] Thereafter, additional Ovalbumin was added to the cells at 10 micrograms/ml for in vitro restimulation of the cells. 72 hours later, cell supernatants were harvested and assayed using the Becton Dickinson Mouse Th1/Th2 Cytokine CBA Kit. This kit can be used to measure Interleukin-2 (IL-2), Interleukin-4 (IL-4), Interleukin-5 (IL-5), Interferon-γ (IFN-γ), and Tumor Necrosis Factor-α (TNF-α) protein levels in a single sample.
Compound,antiviral activity of positive control compounds (HIV-1) [1],inhibition of HBV replication as compared to the virus control infection [4],inhibition of HCMV plaque formation as compared to the virus control experiment [2],IFNγ spleen cells; TH1 response (% of control) [5],IL-2 spleen cells (% of control) [5],IL-4 spleen cells; TH2 response (% of control) [5],IL-5 spleen cells; TH2 response (% of control) [5],TNF-a spleen cells; TH1 response (% of control) [5],other results
Cc1cn([C@H]2C[C@H](N=[N+]=[N-])[C@@H](CO)O2)c(=O)[nH]c1=O [AZT],expected levels of antiviral activity,–,–,–,–,–,–,–,–
"Nc1nc(O)c2ncn(COC(CO)CO)c2n1 [Ganciclovir, reference compound]",–,–,–,–,–,–,–,–,"antiviral activity of positive control compound (HCMV) ([2]; positive control, HCMV AD169): expected levels of antiviral activity"
CC(C)(C)NC(=O)[C@@H]1CN(Cc2cccnc2)CCN1C[C@@H](O)C[C@@H](Cc1ccccc1)C(=O)N[C@H]1c2ccccc2C[C@H]1O [indinavir],expected levels of antiviral activity,–,–,–,–,–,–,–,–
His-Ala-Asp-Gly-Ser-Phe-Ser-Asp-Glu-Met-Asn-Thr-Ile-Leu-Asp-Asn-Leu-Ala-Ala-Arg-Asp-Phe-Ile-Asn-Trp-Leu-Ile-Gln-Thr-Lys-Ile-Thr-Asp-Arg-OH (HADGSFSDEMNTILDNLAARDFINWLIQTKITDR-OH) [Peptide 1],–,59.7%,did not inhibit,132.7 % of control,0.0 % of control,0.0 % of control,48.2 % of control,102.2 % of control,increase of the phagocytic activity of murine macrophages [3]: 22.9%
His-Ala-Asp-Gly-Ser-Phe-Ser-Asp-Glu-Met-Asn-Thr-Ile-Leu-Asp-Asn-Leu-Ala-Ala-Arg-Asp-Phe-Ile-Asn-Trp-Leu-Ile-Gln-Thr-Lys-Ile-Thr-Asp-OH [Peptide 2],–,59.2%,18.8%,132.7 % of control,183.3 % of control,104.4 % of control,108.4 % of control,143.7 % of control,inhibitory effects on the phagocytic activity of murine macrophages [3]: no inhibitory effects
